In ChEMBL document CHEMBL1201862, “PubChem BioAssay data set” (2004):
Calls of active or inactive are those of the source.

Columns and labels:
ORF 73 = ORF 73 (Human herpesvirus 8, UniProt O40947); test: inhibitors of C-LANA binding to LBS DNA, dose response, biochemical, fluorescence polarization, cherry-picked samples (AID 504725); set-up: species or system Human gammaherpesvirus 8;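 note: fluorescence polarization of a labeled DNA duplex reporting LANA DNA binding; potency is for inhibitors that block LANA binding to the DNA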
[1] = molecular target: T1, Polyadenylate-binding protein 1 (Homo sapiens, UniProt P11940); test: PABP1 MLLE–PAM2 binding inhibitor potency, dose response, biochemical, fluorescence polarization, FITC-PAM2 peptide (AID 602259); assay type: functional; details: read-out: IC50_Mean
[2] = molecular target: T2, Zinc finger protein mex-5 (Caenorhabditis elegans, UniProt Q9XUB2); test: MEX-5/TCR-2 RNA interaction inhibitors, dose response, biochemical, C. elegans, fluorescence polarization (AID 1960)
T2 sequence (Q9XUB2 whole entry): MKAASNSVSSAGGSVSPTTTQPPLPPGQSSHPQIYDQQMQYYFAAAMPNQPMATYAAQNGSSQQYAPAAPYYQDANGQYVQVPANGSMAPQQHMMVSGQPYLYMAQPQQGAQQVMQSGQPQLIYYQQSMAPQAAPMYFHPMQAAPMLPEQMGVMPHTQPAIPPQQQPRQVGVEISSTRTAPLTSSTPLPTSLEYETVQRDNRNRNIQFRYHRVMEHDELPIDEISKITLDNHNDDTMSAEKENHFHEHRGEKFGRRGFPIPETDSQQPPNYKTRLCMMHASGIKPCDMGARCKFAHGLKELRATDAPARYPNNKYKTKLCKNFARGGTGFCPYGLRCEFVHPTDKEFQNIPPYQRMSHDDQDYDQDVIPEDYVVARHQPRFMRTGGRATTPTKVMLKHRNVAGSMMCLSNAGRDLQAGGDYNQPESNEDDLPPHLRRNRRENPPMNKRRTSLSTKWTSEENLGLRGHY

Genome polyprotein = Genome polyprotein (dengue virus type 2, UniProt P29990); test: Dengue-2 NS5 methyltransferase inhibitors, primary screen, biochemical, confirmation dose response (AID 588689); assay type: functional
[3] = molecular target: T1, Polyadenylate-binding protein 1; test: PABP1 MLLE–PAM2 interaction inhibitors, dose response, miRNA deadenylation inhibitor project, biochemical, fluorescence polarization, Cy5-PAM2 peptide, secondary (AID 602260); assay type: functional; details: read-out: IC50_Mean
[4] = molecular target: T3, RNA-binding protein pos-1 (Caenorhabditis elegans, UniProt G5EF15); test: inhibitors of POS-1/mex-3 RNA binding, dose response, biochemical, fluorescence polarization (AID 1964);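 note: purified POS-1 fused to maltose binding protein made in E. coli; potency of compounds blocking POS-1 binding to fluorescent RNA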
T3 sequence (G5EF15 whole entry): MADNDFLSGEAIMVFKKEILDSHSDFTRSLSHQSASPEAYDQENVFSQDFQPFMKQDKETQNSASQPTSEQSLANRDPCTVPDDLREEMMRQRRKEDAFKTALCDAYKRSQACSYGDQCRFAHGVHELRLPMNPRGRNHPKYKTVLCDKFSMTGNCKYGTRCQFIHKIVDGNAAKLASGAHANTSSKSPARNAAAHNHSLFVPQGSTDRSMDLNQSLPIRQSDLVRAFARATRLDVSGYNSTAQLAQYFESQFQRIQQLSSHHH

Vero = Vero cell cytotoxicity, cytotoxicity control for flavivirus capping enzyme inhibitors (AID 588742); assay type: functional; details: Chlorocebus sabaeus
[5] = molecular target: T4, Small ubiquitin-related modifier 1 (Homo sapiens, UniProt P63165); test: inhibitors of SUMO1 peptide binding, dose response, biochemical, fluorescence polarization, uHTS hits (AID 624382); assay type: functional; details: read-out: IC50_Mean
[6] = molecular target: T4, Small ubiquitin-related modifier 1; test: inhibitors of SUMO1 partner interactions, dose response, biochemical, FRET (AID 624383); assay type: functional; details: read-out: IC50_Mean
[7] = molecular target: T5, Rac GTPase-activating protein 1 (Homo sapiens, UniProt Q9H0H5); test: MgcRacGAP GTPase-activating activity inhibitors, confirmation, biochemical, ADP Hunter fluorescence, primary and confirmatory (AID 624330); assay type: functional
T5 sequence (Q9H0H5 whole entry): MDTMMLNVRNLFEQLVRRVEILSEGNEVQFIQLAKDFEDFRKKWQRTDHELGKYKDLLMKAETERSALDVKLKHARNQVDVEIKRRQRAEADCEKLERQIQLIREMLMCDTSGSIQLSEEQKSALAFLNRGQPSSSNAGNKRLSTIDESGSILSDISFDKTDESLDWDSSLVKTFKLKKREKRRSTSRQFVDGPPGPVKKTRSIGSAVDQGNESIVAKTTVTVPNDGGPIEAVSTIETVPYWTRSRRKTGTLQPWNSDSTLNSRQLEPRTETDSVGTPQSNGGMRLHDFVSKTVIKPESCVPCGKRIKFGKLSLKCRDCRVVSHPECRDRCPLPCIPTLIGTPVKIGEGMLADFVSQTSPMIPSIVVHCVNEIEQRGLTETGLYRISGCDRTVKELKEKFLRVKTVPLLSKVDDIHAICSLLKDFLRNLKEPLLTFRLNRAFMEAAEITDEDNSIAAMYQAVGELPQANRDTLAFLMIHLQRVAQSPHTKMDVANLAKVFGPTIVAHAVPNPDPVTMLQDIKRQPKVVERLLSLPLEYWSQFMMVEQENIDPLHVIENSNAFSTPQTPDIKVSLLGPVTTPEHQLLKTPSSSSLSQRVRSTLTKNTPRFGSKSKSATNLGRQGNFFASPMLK

[8] = Shn3 3'UTR reporter inhibitors, dose response, cell-based, Clone20 osteoblasts, firefly luciferase, cherry-picked (AID 624132); assay type: functional;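 note: firefly luciferase luminescence from reporter carrying the Shn3 3'UTR in osteoblasts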
[9] = Counterscreen for AddAB inhibitors: absorbance-based bacterial cell-based high throughput dose response assay for inhibitors of bacterial viability. [Related pubchem assays (depositor defined):AID435030, AID449728, AID449731, AID488942, AID488955, AID488956]; assay type: functional
HEK293 [10] = test: SAR Analysis of small molecule inhibitors of T-cell specific antigen receptor-induced NF-kB activation in a HEK-293T cell line using a luminescence assay. [Related pubchem assays (depositor defined):AID435003, AID435012, AID489026]; assay type: functional, cell-based; details: Homo sapiens
HEK293 [11] = test: SAR Analysis of small molecule inhibitors of T-cell specific antigen receptor-induced NF-kB activation in a HEK-293T cell line using a luminescence assay - Set 2. [Related pubchem assays (depositor defined):AID435003, AID435012, AID489026]; assay type: functional, cell-based; details: Homo sapiens
Jurkat [12] = test: SAR Analysis of small molecule inhibitors of T-cell specific antigen receptor-induced NF-kB activation in a Jurkat cell line using a luminescence assay - Set 2. [Related pubchem assays (depositor defined):AID435003, AID435012, AID465]; assay type: functional, cell-based; details: Homo sapiens
cells [13] = assay type: functional, cell-based
[14] = inhibitors of intracellular T. cruzi replication, confirmation, NIH3T3 host cells, beta-gal luminescence (AID 2044); assay type: functional, cell-based;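 note: intracellular parasites grown in NIH/3T3 mouse fibroblasts as host cells; luminescent beta-galactosidase reporter signal from transgenic T. cruzi replicating inside host cells; inhibitors lower the luminescence signal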
[15] = molecular target: Heat shock protein HSP 90-alpha (Homo sapiens, UniProt P07900); assay type: functional, organism-based
[16] = cytotoxicity toward NIH3T3 fibroblasts, dose response, counter-screen, cell-based, ATP luminescence, mouse fibroblasts (AID 2010); assay type: functional;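 note: cells exposed to compound for about 90 hours before reading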
[17] = molecular target: ATP-dependent molecular chaperone HSP82 (Candida albicans (strain WO-1) (Yeast), UniProt C4YTQ8); test: loss of DOC-induced GRE-beta-galactosidase reporter signal, dose response, Hsp90 inhibitor project, S. cerevisiae, luminescence (AID 2400); assay type: functional, cell-based;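 note: beta-galactosidase luminescence from glucocorticoid response element reporter as proxy for Hsp90 function; inhibitor potency where signal loss means Hsp90 inhibition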
[18] = C. albicans growth with fluconazole, confirmation, fluorescence, retest (AID 2467); assay type: functional, cell-based
Exodeoxyribonuclease V = Exodeoxyribonuclease V (Escherichia coli (strain K12), UniProt P04993+P07648+P08394); test: E. coli RecBCD inhibitors, dose response, counter-screen for AddAB inhibitor project, absorbance, V66 E. coli, mutant T4 phage (AID 492957); assay type: functional, cell-based, Escherichia coli str. K-12 substr. MG1655
[19] = molecular target: T6, Serine/threonine-protein phosphatase (Candida dubliniensis (strain CD36 / CBS 7987 / NCPF 3949 / NRRLY-17841) (Yeast), UniProt B9W6M3); test: calcineurin pathway inhibitors in yeast reporter, dose response, S. cerevisiae, CDRE-lacZ, luminescence, secondary (AID 2388); assay type: functional, cell-based;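 note: yeast reporter cells carrying a calcineurin-responsive lacZ construct stimulated with calcium chloride; luminescent beta-galactosidase reporter signal in whole cells rather than isolated phosphatase activity; potency for inhibition where a drop in reporter signal means calcineurin blockade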
T6 sequence (B9W6M3 whole entry): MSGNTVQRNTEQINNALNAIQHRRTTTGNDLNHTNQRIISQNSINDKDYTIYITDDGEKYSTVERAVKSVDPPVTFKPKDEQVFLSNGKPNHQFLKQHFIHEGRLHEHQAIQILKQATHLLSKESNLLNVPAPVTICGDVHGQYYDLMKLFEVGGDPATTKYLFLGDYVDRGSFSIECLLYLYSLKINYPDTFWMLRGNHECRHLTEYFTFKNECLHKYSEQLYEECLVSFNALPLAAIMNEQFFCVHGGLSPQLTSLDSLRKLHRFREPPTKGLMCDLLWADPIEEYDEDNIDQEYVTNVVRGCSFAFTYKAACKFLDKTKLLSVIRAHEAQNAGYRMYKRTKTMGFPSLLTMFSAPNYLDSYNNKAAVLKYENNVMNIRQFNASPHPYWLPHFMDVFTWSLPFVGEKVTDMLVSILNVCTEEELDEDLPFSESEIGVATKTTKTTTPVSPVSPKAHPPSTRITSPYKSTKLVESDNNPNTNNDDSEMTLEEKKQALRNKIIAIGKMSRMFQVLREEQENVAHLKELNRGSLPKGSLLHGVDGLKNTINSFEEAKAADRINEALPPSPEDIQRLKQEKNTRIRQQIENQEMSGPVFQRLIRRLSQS

[20] = NIH-3T3 fibroblast cytotoxicity, dose response, cytotoxicity control, cell-based, fluorescence, Alamar Blue, secondary assay (AID 2327); assay type: functional;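 note: NIH-3T3 mouse fibroblasts cultured with fluconazole at 8 µg/mL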
Nonstructural protein 1 = Nonstructural protein 1 (Influenza A virus, UniProt Q194T2); assay type: functional, Influenza A virus (A/California/07/2009(H1N1))
Jurkat [21] = test: SAR Analysis of small molecule inhibitors of T-cell specific antigen receptor-induced NF-kB activation in a Jurkat cell line using a luminescence assay. [Related pubchem assays (depositor defined):AID435003, AID435012, AID465]; assay type: functional, cell-based; details: Homo sapiens
HEK293 [22] = test: cytotoxicity in HEK293T NF-kB-Luc cells, SAR follow-up, cytotoxicity control for NF-kB activator project, cell-based, resazurin fluorescence (AID 493251); assay type: functional
INS1 = test: beta cell apoptosis inhibitors, cytokine rescue, dose response, luminescence, retest (AID 449756); assay type: functional, cell-based; details: Rattus norvegicus;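 note: cell death triggered by IL-1 beta plus TNF-alpha plus IFN-gamma mixture; protective hits raise ATP signal compared with cytokine alone wells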
[23] = control 3'UTR Renilla luciferase suppression, dose response, counter-screen for Shn3 inhibitor project, cell-based, Clone20-Shn3RL, cherry-picked (AID 624133); assay type: functional
[24] = HepG2 cell cytotoxicity, dose response, cytotoxicity control for Shn3 inhibitor project, CellTiter-Glo, cherry-picked (AID 624134); assay type: functional, cell-based
cells [25] = assay type: functional, cell-based; remark: listed apart in the source

T4 sequence (P63165 whole entry): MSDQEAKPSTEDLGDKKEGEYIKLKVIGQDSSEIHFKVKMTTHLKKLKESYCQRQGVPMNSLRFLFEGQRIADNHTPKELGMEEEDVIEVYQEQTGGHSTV
T1 sequence (P11940 whole entry): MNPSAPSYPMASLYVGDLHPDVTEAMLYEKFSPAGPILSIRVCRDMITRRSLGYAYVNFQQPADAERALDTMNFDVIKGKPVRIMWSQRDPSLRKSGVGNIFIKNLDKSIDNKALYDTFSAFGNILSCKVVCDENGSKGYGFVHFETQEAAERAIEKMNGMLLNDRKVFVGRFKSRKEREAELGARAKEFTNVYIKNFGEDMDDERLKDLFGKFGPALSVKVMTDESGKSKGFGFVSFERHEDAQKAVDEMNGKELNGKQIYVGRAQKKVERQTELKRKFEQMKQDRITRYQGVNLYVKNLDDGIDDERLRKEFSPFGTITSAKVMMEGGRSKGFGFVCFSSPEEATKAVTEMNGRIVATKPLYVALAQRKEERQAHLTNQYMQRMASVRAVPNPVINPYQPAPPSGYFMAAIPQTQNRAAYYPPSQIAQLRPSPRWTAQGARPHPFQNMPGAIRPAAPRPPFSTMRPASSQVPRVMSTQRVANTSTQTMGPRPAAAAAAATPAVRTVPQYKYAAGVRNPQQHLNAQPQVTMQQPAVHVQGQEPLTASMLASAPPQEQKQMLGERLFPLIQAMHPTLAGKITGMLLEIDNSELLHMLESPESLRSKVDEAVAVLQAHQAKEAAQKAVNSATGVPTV
ATP-dependent molecular chaperone HSP82, sequence (C4YTQ8 whole entry): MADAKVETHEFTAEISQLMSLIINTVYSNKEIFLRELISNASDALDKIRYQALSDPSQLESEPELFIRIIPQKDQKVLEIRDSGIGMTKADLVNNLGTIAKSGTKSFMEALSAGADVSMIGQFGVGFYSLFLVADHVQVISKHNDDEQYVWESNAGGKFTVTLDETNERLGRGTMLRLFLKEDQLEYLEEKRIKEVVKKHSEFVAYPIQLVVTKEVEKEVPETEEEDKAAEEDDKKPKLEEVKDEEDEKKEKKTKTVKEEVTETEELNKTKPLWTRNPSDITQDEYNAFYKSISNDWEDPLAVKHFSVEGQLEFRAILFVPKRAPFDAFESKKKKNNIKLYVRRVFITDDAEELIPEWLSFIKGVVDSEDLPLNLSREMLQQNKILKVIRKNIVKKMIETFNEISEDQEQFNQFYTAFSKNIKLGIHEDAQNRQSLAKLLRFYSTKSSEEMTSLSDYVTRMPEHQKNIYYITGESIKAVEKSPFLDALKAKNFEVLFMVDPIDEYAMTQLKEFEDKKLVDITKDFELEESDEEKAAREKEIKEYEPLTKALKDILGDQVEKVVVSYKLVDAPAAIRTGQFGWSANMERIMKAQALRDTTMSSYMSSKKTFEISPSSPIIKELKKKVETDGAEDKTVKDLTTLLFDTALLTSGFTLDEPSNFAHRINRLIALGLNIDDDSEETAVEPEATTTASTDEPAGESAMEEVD
Genome polyprotein, sequence (P29990 2492-3391 limits assumed): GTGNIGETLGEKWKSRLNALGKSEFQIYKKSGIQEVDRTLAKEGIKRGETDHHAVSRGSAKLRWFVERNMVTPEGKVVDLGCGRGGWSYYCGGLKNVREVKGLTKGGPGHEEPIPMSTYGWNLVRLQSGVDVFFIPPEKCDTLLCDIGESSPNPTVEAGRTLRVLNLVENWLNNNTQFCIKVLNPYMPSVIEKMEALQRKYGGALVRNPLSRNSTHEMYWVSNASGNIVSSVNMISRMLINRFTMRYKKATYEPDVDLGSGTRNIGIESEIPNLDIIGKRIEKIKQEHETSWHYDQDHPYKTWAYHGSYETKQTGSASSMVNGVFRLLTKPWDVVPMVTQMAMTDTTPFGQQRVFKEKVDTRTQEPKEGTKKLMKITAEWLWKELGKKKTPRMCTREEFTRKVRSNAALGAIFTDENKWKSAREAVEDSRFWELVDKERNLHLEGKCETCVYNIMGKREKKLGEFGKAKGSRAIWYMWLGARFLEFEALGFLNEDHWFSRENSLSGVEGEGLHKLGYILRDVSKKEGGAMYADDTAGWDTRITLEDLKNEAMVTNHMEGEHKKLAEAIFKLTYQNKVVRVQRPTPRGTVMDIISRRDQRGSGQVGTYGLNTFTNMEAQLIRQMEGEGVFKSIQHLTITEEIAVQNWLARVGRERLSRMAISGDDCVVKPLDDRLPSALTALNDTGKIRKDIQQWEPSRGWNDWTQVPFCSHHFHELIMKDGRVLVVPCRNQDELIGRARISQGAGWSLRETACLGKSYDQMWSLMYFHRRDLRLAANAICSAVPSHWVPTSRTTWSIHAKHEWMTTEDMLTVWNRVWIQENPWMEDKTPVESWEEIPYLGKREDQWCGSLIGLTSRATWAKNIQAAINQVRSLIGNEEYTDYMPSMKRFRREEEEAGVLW
ORF 73, sequence (O40947 whole entry): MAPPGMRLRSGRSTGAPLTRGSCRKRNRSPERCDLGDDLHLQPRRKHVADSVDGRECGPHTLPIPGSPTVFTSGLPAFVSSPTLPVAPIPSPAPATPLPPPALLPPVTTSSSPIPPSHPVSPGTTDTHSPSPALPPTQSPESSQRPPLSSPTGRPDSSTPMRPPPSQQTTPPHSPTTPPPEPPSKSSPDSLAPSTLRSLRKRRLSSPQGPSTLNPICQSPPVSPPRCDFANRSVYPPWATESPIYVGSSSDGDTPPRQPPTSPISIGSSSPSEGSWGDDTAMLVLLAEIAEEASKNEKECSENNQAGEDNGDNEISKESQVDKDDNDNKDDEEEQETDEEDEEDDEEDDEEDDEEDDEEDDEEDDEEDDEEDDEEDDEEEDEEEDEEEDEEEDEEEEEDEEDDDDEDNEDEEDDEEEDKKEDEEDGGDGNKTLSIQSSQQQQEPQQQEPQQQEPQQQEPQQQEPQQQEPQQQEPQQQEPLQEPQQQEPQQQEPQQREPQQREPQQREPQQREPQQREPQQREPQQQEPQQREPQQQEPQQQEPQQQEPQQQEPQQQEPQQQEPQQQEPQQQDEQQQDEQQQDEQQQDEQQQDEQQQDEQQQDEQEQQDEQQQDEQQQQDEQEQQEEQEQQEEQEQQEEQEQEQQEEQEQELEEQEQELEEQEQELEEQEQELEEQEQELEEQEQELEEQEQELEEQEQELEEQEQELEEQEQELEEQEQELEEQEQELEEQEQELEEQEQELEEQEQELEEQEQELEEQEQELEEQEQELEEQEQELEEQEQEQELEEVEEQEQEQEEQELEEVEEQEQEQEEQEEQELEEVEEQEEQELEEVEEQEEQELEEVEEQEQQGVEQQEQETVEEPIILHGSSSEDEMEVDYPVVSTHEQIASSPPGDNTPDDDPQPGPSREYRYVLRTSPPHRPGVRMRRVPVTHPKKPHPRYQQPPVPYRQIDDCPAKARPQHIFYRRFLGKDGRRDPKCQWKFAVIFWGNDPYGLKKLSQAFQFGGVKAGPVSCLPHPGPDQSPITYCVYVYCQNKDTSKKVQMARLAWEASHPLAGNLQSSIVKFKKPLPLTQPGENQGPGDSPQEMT
Nonstructural protein 1, sequence (Q194T2 whole entry): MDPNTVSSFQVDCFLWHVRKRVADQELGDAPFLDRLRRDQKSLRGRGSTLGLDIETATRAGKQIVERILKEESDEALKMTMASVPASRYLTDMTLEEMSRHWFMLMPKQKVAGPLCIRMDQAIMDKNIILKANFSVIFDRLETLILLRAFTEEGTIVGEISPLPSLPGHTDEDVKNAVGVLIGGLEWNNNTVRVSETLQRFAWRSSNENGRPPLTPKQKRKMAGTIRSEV

CCOC(=O)C1Nc2ccc(C(=O)O)cc2C2C=CCC12 (configuration not stated)
inactive: IC50 [1] > 66 µM | IC50 [3] > 66 µM | IC50 [5] > 66.6 µM | IC50 [6] 39 µM
active: AC50 (ORF 73) 42.9 µM | EC50 [2] 20.3 µM | IC50 (Genome polyprotein) 44.9 µM | EC50 [4] 38.9 µM | CC50 (Vero) > 40 µM | IC50 [7] 305 µM

CCCC(=O)NC(c1ccccc1)c1ccc2cccnc2c1O (configuration not stated)
inconclusive: EC50 [20] 16.6 µM
active: AC50 [8] 1.99 µM | IC50 (HEK293 [10]) 7.31 µM | IC50 (HEK293 [11]) 10.5 µM | IC50 (Jurkat [12]) 6.27 µM | EC50 (cells [13]) 6.78 µM | EC50 [14] 0.565 µM | AC50 [15] 4.65 µM | EC50 [16] 1.01 µM | EC50 [18] 0.463 µM | IC50 (Nonstructural protein 1) 21.5 µM | IC50 (Jurkat [21]) 3.81 µM | IC50 (HEK293 [22]; Homo sapiens, HEK293) 13.6 µM | IC50 (HEK293 [22]; hek293) 8.74 µM | AC50 (INS1) 0.664 µM | AC50 [23] 1.89 µM | AC50 [24] 2.88 µM
inactive: IC50 [9] > 119 µM | EC50 [17] > 160 µM | IC50 (Exodeoxyribonuclease V) > 119 µM | EC50 [19] > 180 µM
> 350 µM (not active): EC50 (cells [25])
